Assay results from the supplement of paper PMC10307832.

Experiments:
Assay in all cases: relative viability (nuclei count vs DMSO), 5 days (fraction); higher = more cells survive
[1] = compound: COc1cc(-c2nn([C@H]3CC[C@H](N4CCN(C(C)=O)CC4)CC3)c3ncnc(N)c23)ccc1NC(=O)c1cc2ccccc2n1C + COc1cccc2cc(-c3nc([C@H]4CC[C@H](C(=O)O)CC4)n4ncnc(N)c34)[nH]c12 [OSI-027] (partner 0.5 µM)
How it was run: (§1)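 Lung cancer cell lines were pin-tool dosed in 1536-well plates on the day after seeding, with either a lone drug or a fixed anchor-drug dose plus five library-drug doses (not always all listed) in √10 steps. Nuclei were counted on 4× images after 5 days. Relative viability is the ratio of treated-well to vehicle-well nuclei counts, with each value a median of duplicate plates.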

[2] = compound: COc1cc(-c2nn([C@H]3CC[C@H](N4CCN(C(C)=O)CC4)CC3)c3ncnc(N)c23)ccc1NC(=O)c1cc2ccccc2n1C + CC(=O)Nc1cccc(-n2c(=O)n(C3CC3)c(=O)c3c(Nc4ccc(I)cc4F)n(C)c(=O)c(C)c32)c1 [Trametinib] (partner 0.02 µM)
How it was run: as §1

Midostaurin + Olaparib = compound: CO[C@@H]1[C@H](N(C)C(=O)c2ccccc2)C[C@H]2O[C@]1(C)n1c3ccccc3c3c4c(c5c6ccccc6n2c5c31)C(=O)NC4 [Midostaurin] + O=C(c1cc(Cc2n[nH]c(=O)c3ccccc23)ccc1F)N1CCN(C(=O)C2CC2)CC1 [Olaparib] (partner 8 µM)
How it was run: as §1

[3] = compound: COc1cc(-c2nn([C@H]3CC[C@H](N4CCN(C(C)=O)CC4)CC3)c3ncnc(N)c23)ccc1NC(=O)c1cc2ccccc2n1C + C[C@@H](Oc1cc(-c2cnn(C3CCNCC3)c2)cnc1N)c1c(Cl)ccc(F)c1Cl [Crizotinib] (partner 1 µM)
How it was run: as §1

Midostaurin + Dasatinib = compound: CO[C@@H]1[C@H](N(C)C(=O)c2ccccc2)C[C@H]2O[C@]1(C)n1c3ccccc3c3c4c(c5c6ccccc6n2c5c31)C(=O)NC4 [Midostaurin] + Cc1nc(Nc2ncc(C(=O)Nc3c(C)cccc3Cl)s2)cc(N2CCN(CCO)CC2)n1 [Dasatinib] (partner 0.075 µM)
How it was run: as §1

Row | Cell Line | relative viability ([1]; first compound 0.0128 µM) | relative viability ([1]; first compound 0.04048 µM) | relative viability ([1]; first compound 0.128 µM) | relative viability ([1]; first compound 1.28 µM) | relative viability ([2]; first compound 0.0128 µM) | relative viability ([2]; first compound 0.04048 µM) | relative viability ([2]; first compound 0.128 µM) | relative viability ([2]; first compound 1.28 µM) | relative viability (Midostaurin + Olaparib; first compound 0.01 µM) | relative viability (Midostaurin + Olaparib; first compound 0.3162 µM) | relative viability ([3]; first compound 0.0128 µM) | relative viability ([3]; first compound 0.04048 µM) | relative viability ([3]; first compound 0.128 µM) | relative viability ([3]; first compound 1.28 µM) | relative viability (Midostaurin + Dasatinib; first compound 0.01 µM) | relative viability (Midostaurin + Dasatinib; first compound 0.03162 µM) | relative viability (Midostaurin + Dasatinib; first compound 0.1 µM) | relative viability (Midostaurin + Dasatinib; first compound 0.3162 µM) | relative viability (Midostaurin + Olaparib; first compound 0.03162 µM) | relative viability (Midostaurin + Olaparib; first compound 0.1 µM)
1 | NCI-H1648 | 0.27 | 0.257 | 0.274 | 0.276 | 0.478 | 0.311 | 0.386 | 0.293 | 1.08 | 0.767 | – | – | – | – | – | – | – | – | – | –
2 | SK-MES-1 | 0.685 | 0.665 | 0.583 | 0.562 | 0.563 | 0.4 | 0.539 | 0.279 | 0.634 | 0.473 | 1.02 | 1.04 | 0.869 | 0.971 | 0.309 | 0.36 | 0.393 | 0.237 | 0.595 | 0.66
3 | HCC-366 | 0.803 | 0.347 | 0.882 | 0.772 | 0.309 | 0.281 | 0.305 | 0.179 | 0.336 | 0.117 | 0.692 | 0.679 | 0.546 | 0.281 | 0.634 | 0.583 | 0.537 | 0.638 | 0.358 | 0.302
4 | 201T | 0.646 | 0.765 | 0.746 | 0.339 | 0.743 | 0.727 | 0.695 | 0.585 | 0.833 | 0.86 | 1.02 | 1.05 | 0.941 | 0.815 | 0.557 | 0.533 | 0.562 | 0.558 | 0.801 | 0.815
5 | HCC-827 | 0.817 | 0.658 | 0.666 | 0.744 | 0.574 | 0.341 | 0.525 | 0.286 | 0.582 | 0.654 | 0.903 | 0.963 | 0.94 | 0.685 | 0.417 | 0.441 | 0.386 | 0.341 | 0.628 | 0.589
6 | NCI-H647 | 0.594 | 0.656 | 0.617 | 0.435 | 0.543 | 0.265 | 0.333 | 0.169 | 0.495 | 0.316 | 1.03 | 0.858 | 0.886 | 0.541 | 0.181 | 0.209 | 0.134 | 0.103 | 0.688 | 0.455
7 | NCI-H2023 | 0.409 | 0.4 | 0.423 | 0.28 | 0.402 | 0.445 | 0.585 | 0.454 | 0.494 | 0.246 | 0.587 | 0.736 | 0.592 | 0.412 | 0.585 | 0.691 | 0.539 | 0.443 | 0.505 | 0.396
8 | NCI-H520 | 0.191 | 0.252 | 0.201 | 0.174 | 0.606 | 0.354 | 0.55 | 0.361 | 0.32 | 0.249 | 0.763 | 0.621 | 0.628 | 0.549 | 0.176 | 0.178 | 0.272 | 0.203 | 0.318 | 0.266
9 | RERF-LC-KJ | 0.634 | 0.536 | 0.581 | 0.569 | 0.844 | 0.818 | 0.867 | 0.749 | 0.819 | 0.716 | 0.897 | 0.914 | 0.742 | 0.846 | 0.848 | 0.934 | 0.876 | 0.709 | 0.839 | 0.814
10 | A-427 | 0.497 | – | 0.456 | 0.45 | 0.82 | 0.462 | 0.759 | 0.711 | 0.711 | 0.725 | 1.04 | 0.771 | 0.872 | 0.803 | 0.726 | 0.63 | 0.607 | 0.704 | 0.654 | 0.713
11 | NCI-H441 | 0.637 | 0.531 | 0.763 | 0.702 | 0.438 | 0.463 | 0.407 | 0.336 | 0.475 | 0.427 | 0.841 | 0.621 | 0.655 | 0.705 | 0.677 | 0.533 | 0.552 | 0.405 | 0.677 | 0.458
12 | NCI-H1703 | – | – | – | – | – | – | – | – | 0.507 | 0.216 | 0.585 | 0.73 | 0.496 | 0.206 | – | – | – | – | 0.421 | 0.298
13 | NCI-H1792 | 0.736 | 0.523 | 0.689 | 0.558 | 0.433 | 0.132 | 0.401 | 0.348 | 0.383 | 0.146 | 0.958 | 1.01 | 0.88 | 0.896 | 0.793 | 0.779 | 0.669 | 0.611 | 0.308 | 0.249
14 | Calu-6 | – | – | – | – | – | – | – | – | 0.421 | 0.495 | 0.692 | 0.806 | 0.609 | 0.596 | – | – | – | – | 0.638 | 0.509
15 | SK-LU-1 | 0.4 | 0.291 | 0.284 | 0.206 | 0.455 | 0.316 | 0.432 | 0.336 | 0.471 | 0.346 | 1 | 0.975 | 0.658 | 0.506 | 0.198 | 0.191 | 0.176 | 0.175 | 0.439 | 0.443
16 | PC-3 [JPC-3] | 0.817 | 0.817 | 0.77 | 0.771 | 0.746 | 0.705 | 0.678 | 0.802 | 1.08 | 1.07 | 1.05 | 1.09 | 0.968 | 1.08 | 0.952 | 0.893 | 1.07 | 1.01 | 0.946 | 1.05
